According to PubChem BioAssay AID328 (DTP/NCI, 2004):
“And” between values parts separate entries of the source, which are not always exact repeats. Equal entries are not always repeated. Toxic doses and inconclusive results are not listed.

Tested on: BDF1 mice, P388 leukemia ip, median survival T/C
Experiment: NCI In Vivo Anticancer Drug Screen. Data for tumor model P388 Leukemia (intraperitoneal) in B6D2F1 (BDF1) mice
Details: endpoint: median survival time, higher = longer survival
In short: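 Survival ratio, drug arm over vehicle arm, in mice with a transplanted tumour.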

[1] = dose: 50.0 mg/kg/injection, schedule: Q04DX003 (ip), vehicle: saline with Tween-80
[2] = dose: 100.0 mg/kg/injection, schedule: Q04DX003 (ip), vehicle: saline with Tween-80
[3] = dose: 200.0 mg/kg/injection, schedule: Q04DX003 (ip), vehicle: saline with Tween-80
[4] = dose: 25.0 mg/kg/injection, schedule: Q04DX003 (ip), vehicle: saline with Tween-80
[5] = dose: 100.0 mg/kg/injection, schedule: Q01DX009 (ip), vehicle: Klucel (hydroxypropylcellulose) (HPC)
[6] = dose: 200.0 mg/kg/injection, schedule: Q01DX009 (ip), vehicle: Klucel (hydroxypropylcellulose) (HPC)
[7] = dose: 400.0 mg/kg/injection, schedule: Q01DX009 (ip), vehicle: Klucel (hydroxypropylcellulose) (HPC)
[8] = dose: 50.0 mg/kg/injection, schedule: Q01DX009 (ip), vehicle: saline with Tween-80
[9] = dose: 100.0 mg/kg/injection, schedule: Q01DX009 (ip), vehicle: saline with Tween-80
[10] = dose: 200.0 mg/kg/injection, schedule: Q01DX009 (ip), vehicle: saline with Tween-80
[11] = dose: 100.0 mg/kg/injection, schedule: Q04DX003 (ip), vehicle: Klucel (hydroxypropylcellulose) (HPC)
[12] = dose: 200.0 mg/kg/injection, schedule: Q04DX003 (ip), vehicle: Klucel (hydroxypropylcellulose) (HPC)
[13] = dose: 400.0 mg/kg/injection, schedule: Q04DX003 (ip), vehicle: Klucel (hydroxypropylcellulose) (HPC)
[14] = dose: 25.0 mg/kg/injection, schedule: Q01DX009 (ip), vehicle: saline
[15] = dose: 50.0 mg/kg/injection, schedule: Q01DX009 (ip), vehicle: saline
[16] = dose: 50.0 mg/kg/injection, schedule: Q04DX003 (ip), vehicle: saline
[17] = dose: 100.0 mg/kg/injection, schedule: Q01DX009 (ip), vehicle: saline
[18] = dose: 100.0 mg/kg/injection, schedule: Q04DX003 (ip), vehicle: saline
[19] = dose: 200.0 mg/kg/injection, schedule: Q01DX009 (ip), vehicle: saline
[20] = dose: 200.0 mg/kg/injection, schedule: Q04DX003 (ip), vehicle: saline
[21] = dose: 400.0 mg/kg/injection, schedule: Q01DX009 (ip), vehicle: saline
[22] = dose: 400.0 mg/kg/injection, schedule: Q04DX003 (ip), vehicle: saline
[23] = dose: 25.0 mg/kg/injection, schedule: Q04DX003 (ip), vehicle: saline
[24] = dose: 12.5 mg/kg/injection, schedule: Q01DX009 (ip), vehicle: saline

C=C1CC(C2CCC(C)(C)C2)OC1=O (stereo not drawn)
T/C (dose: 25.0 mg/kg/injection, schedule: Q04DX002 (ip), vehicle: saline with Tween-80): 102 % of control | T/C (dose: 50.0 mg/kg/injection, schedule: Q04DX002 (ip), vehicle: saline with Tween-80): 100 % of control

C=CC=O
T/C (dose: 0.45 mg/kg/injection, schedule: Q01DX009 (ip), vehicle: saline): 100 % of control | T/C (dose: 0.45 mg/kg/injection, schedule: Q04DX003 (ip), vehicle: saline): 109 % of control | T/C (dose: 0.9 mg/kg/injection, schedule: Q01DX009 (ip), vehicle: saline): 108 % of control | T/C (dose: 0.9 mg/kg/injection, schedule: Q04DX003 (ip), vehicle: saline): 100 % of control | T/C (dose: 1.8 mg/kg/injection, schedule: Q01DX009 (ip), vehicle: saline): 112 % of control | T/C (dose: 1.8 mg/kg/injection, schedule: Q04DX003 (ip), vehicle: saline): 109 % of control | T/C (dose: 6.25 mg/kg/injection, schedule: Q01DX009 (ip), vehicle: saline): 109 % of control | T/C (dose: 6.25 mg/kg/injection, schedule: Q04DX003 (ip), vehicle: saline): 104 % of control | T/C (dose: 12.5 mg/kg/injection, schedule: Q04DX003 (ip), vehicle: saline): 100 % of control

C[As](C)Sc1ccnc(S[As](C)C)n1
T/C [1]: 100 % of control | T/C [2]: 100 % of control | T/C [3]: 104 % of control

COc1cc2c(cc1OC)[C@]13C[C@H](OC)CC=C1CCN3CCC2
T/C (dose: 10.0 mg/kg/injection, schedule: Q01DX009 (ip), vehicle: alcohol): 86 % of control | T/C (dose: 20.0 mg/kg/injection, schedule: Q01DX009 (ip), vehicle: alcohol): 100 % of control | T/C (dose: 40.0 mg/kg/injection, schedule: Q01DX009 (ip), vehicle: alcohol): 100 % of control | T/C (dose: 80.0 mg/kg/injection, schedule: Q01DX009 (ip), vehicle: alcohol): 95 % of control

C[n+]1ccc2cc(N)c3c4ccccc4sc3c2c1
T/C (dose: 3.12 mg/kg/injection, schedule: Q01DX009 (ip), vehicle: saline with Tween-80): 110 % of control and 119 % of control | T/C (dose: 3.13 mg/kg/injection, schedule: Q01DX009 (ip), vehicle: Klucel (hydroxypropylcellulose) (HPC)): 116 % of control | T/C (dose: 6.25 mg/kg/injection, schedule: Q01DX009 (ip), vehicle: Klucel (hydroxypropylcellulose) (HPC)): 123 % of control | T/C (dose: 6.25 mg/kg/injection, schedule: Q04DX003 (ip), vehicle: saline with Tween-80): 105 % of control | T/C (dose: 12.5 mg/kg/injection, schedule: Q01DX009 (ip), vehicle: Klucel (hydroxypropylcellulose) (HPC)): 156 % of control | T/C (dose: 12.5 mg/kg/injection, schedule: Q04DX003 (ip), vehicle: saline with Tween-80): 112 % of control | T/C (dose: 25.0 mg/kg/injection, schedule: Q01DX009 (ip), vehicle: Klucel (hydroxypropylcellulose) (HPC)): 170 % of control and 184 % of control | T/C (dose: 25.0 mg/kg/injection, schedule: Q01DX009 (ip), vehicle: saline with Tween-80): 172 % of control | T/C [4]: 112 % of control

C/C=C(\CC)C(=O)NC(N)=O
T/C [5]: 95 % of control | T/C [6]: 100 % of control | T/C [7]: 122 % of control

COc1ccc2c(c1OC)CN(C)CCc1cc3c(cc1C(=O)C2)OCO3
T/C (dose: 18.75 mg/kg/injection, schedule: Q01DX009 (ip), vehicle: saline with Tween-80): 95 % of control | T/C (dose: 37.5 mg/kg/injection, schedule: Q01DX009 (ip), vehicle: saline with Tween-80): 95 % of control

N#CCCN(CCC#N)/N=N\c1nc[nH]c1C(N)=O
T/C [8]: 101 % of control | T/C [9]: 105 % of control | T/C [10]: 113 % of control | T/C (dose: 400.0 mg/kg/injection, schedule: Q01DX009 (ip), vehicle: saline with Tween-80): 113 % of control

CCCC1(C)NC(=O)NC1=O (stereo not drawn)
T/C [2]: 104 % of control | T/C [3]: 113 % of control | T/C (dose: 400.0 mg/kg/injection, schedule: Q04DX003 (ip), vehicle: saline with Tween-80): 90 % of control

CC1SC(N)=NC1=O (stereo not drawn)
T/C [5]: 100 % of control | T/C [11]: 109 % of control | T/C [6]: 109 % of control | T/C [12]: 86 % of control | T/C [7]: 100 % of control | T/C [13]: 109 % of control

CCOC(=O)c1cnc2c(OC)cccc2c1Cl
T/C (dose: 4.0 mg/kg/injection, schedule: Q01DX009 (ip), vehicle: saline): 86 % of control | T/C (dose: 8.0 mg/kg/injection, schedule: Q01DX009 (ip), vehicle: saline): 91 % of control | T/C (dose: 16.0 mg/kg/injection, schedule: Q01DX009 (ip), vehicle: saline): 106 % of control | T/C [14]: 120 % of control | T/C [15]: 113 % of control | T/C [16]: 96 % of control | T/C [17]: 111 % of control | T/C [18]: 96 % of control | T/C [19]: 113 % of control | T/C [20]: 97 % of control | T/C [21]: 113 % of control | T/C [22]: 90 % of control

O=N[O-].O=N[O-].[NH-]CC[NH-].[Pt+2]
T/C [23]: 95 % of control | T/C [16]: 108 % of control | T/C [17]: 90 % of control | T/C [18]: 95 % of control

CC1(C#N)CCC(CCc2ccccc2)C(=O)C1 (stereo not drawn)
T/C (dose: 75.0 mg/kg/injection, schedule: Q04DX003 (ip), vehicle: saline): 95 % of control | T/C (dose: 150.0 mg/kg/injection, schedule: Q04DX003 (ip), vehicle: saline): 87 % of control | T/C (dose: 300.0 mg/kg/injection, schedule: Q04DX003 (ip), vehicle: saline): 104 % of control

CCCc1cc(CCC)n2nc(N)nc2n1
T/C [8]: 109 % of control | T/C [9]: 100 % of control

COc1ccc(CC2=NCCc3cc(OC)c(OC)cc32)cc1OC
T/C [24]: 153 % of control | T/C [14]: 99 % of control

Cn1c(=O)c2nc(-c3ccc(Cl)cc3)c(-c3ccc(Cl)cc3)nc2n(C)c1=O
T/C (dose: 100.0 mg/kg/injection, schedule: Q01DX001 (ip), vehicle: saline with Tween-80): 110 % of control | T/C (dose: 200.0 mg/kg/injection, schedule: Q01DX001 (ip), vehicle: saline with Tween-80): 112 % of control

Clc1ccccc1-c1nc(-c2ccncc2)no1
T/C [8]: 89 % of control | T/C [9]: 93 % of control | T/C [10]: 100 % of control

Nc1nc(=S)c2ncn(C3OC(CO)CC3O)c2[nH]1 (stereo not drawn)
T/C [17]: 95 % of control

O=[N+]([O-])c1ccc(N/N=C/c2ccccn2)cc1
T/C [11]: 104 % of control | T/C [12]: 100 % of control | T/C [13]: 109 % of control

O=C1SCCC1CO (stereo not drawn)
T/C [2]: 114 % of control

Cc1nn(C)c(N)c1C#N
T/C [24]: 87 % of control | T/C [14]: 94 % of control | T/C [23]: 103 % of control | T/C [15]: 87 % of control | T/C [16]: 97 % of control | T/C [17]: 101 % of control | T/C [18]: 92 % of control | T/C [19]: 100 % of control | T/C [20]: 97 % of control | T/C [21]: 92 % of control | T/C [22]: 97 % of control

O=[N+]([O-])c1ccc(N(CCO)CCO)c2nonc12
T/C (dose: 15.0 mg/kg/injection, schedule: Q01DX009 (ip), vehicle: saline with Tween-80): 101 % of control | T/C [4]: 114 % of control | T/C (dose: 30.0 mg/kg/injection, schedule: Q01DX009 (ip), vehicle: saline with Tween-80): 100 % of control | T/C [1]: 97 % of control | T/C (dose: 60.0 mg/kg/injection, schedule: Q01DX009 (ip), vehicle: saline with Tween-80): 101 % of control | T/C [2]: 98 % of control

O=C(c1ccccc1)c1ccccc1
T/C (dose: 100.0 mg/kg/injection, schedule: Q01DX001 (ip), vehicle: Klucel (hydroxypropylcellulose) (HPC)): 100 % of control | T/C (dose: 200.0 mg/kg/injection, schedule: Q01DX001 (ip), vehicle: Klucel (hydroxypropylcellulose) (HPC)): 100 % of control | T/C (dose: 400.0 mg/kg/injection, schedule: Q01DX001 (ip), vehicle: Klucel (hydroxypropylcellulose) (HPC)): 116 % of control
